Experimental data reported in patent US20250339444A1, “Methods and Compositions for Treating Fatty Liver and Viral Infections” (The Board of Trustees of the Leland Stanford Junior …, priority 2022, published 2025).

Columns and labels:
[1] = biological target: apolipoprotein B (apoB) (Homo sapiens, UniProt P04114); assay: Binding to apolipoprotein B
[2] = system: U87-MG cells
[3] = system: Venezuelan equine encephalitis virus (VEEV) TC83 strain; assay: microbe, parasite or virus in culture; type: cell-based; details: U-87 MG, read-out: EC50, VEEV genome replication
[4] = system: PR8 virus (ATCC-VR-1469); assay: Influenza PR8 plaque assay in MDCK cells; type: cell-based
[5] = system: hepatic steatosis in C57/BL6 mice on high fat diet; assay: Hepatic steatosis in C57/BL6 mice on high fat diet, liver ultrasound; type: in vivo; details: 100 mg/kg/day
[6] = system: HBV; assay: Reduction of HBV surface antigen in cells infected with HBV; type: cell-based; details: Hepatitis B virus; cells infected with HBV (FIG. 4: engineered human liver tissue)
Description: We then discovered that A27 had antiviral activity against HBV, showing reduction in HBV surface antigen in cells infected with HBV with an EC50 of ˜1 μM (FIG. 4).

[7] = system: RSV-luc5 virus; assay: RSV-luc5 luciferase replication assay in HeLa cells; details: human respiratory syncytial virus, 72 h, read-out: EC50, RSV replication
[8] = system: TMPRSS2-ACE2-Huh7.5 cells; assay: Toxicity in the SARS-CoV-2 cell culture assay; details: SARS-CoV-2 assay
[9] = system: HepG2 cells; assay: Steatosis in HepG2 cells cultured in fatty medium, Nile Red staining; type: cell-based
Description: Briefly, fatty medium was prepared by 1:1 mixture of oleic acid and palmitic acid (Sigma Aldrich) with 10% FFA-free bovine serum albumin (BSA) solution (Sigma Aldrich) in PBS. Essentially, 100 mM of oleic acid and palmitic acid was prepared in 99% methanol. Palmitic acid was prepared by shaking at 500 rpm 50° C. for 20 mins. 10 mM of oleic acid and palmitic acid was incubated with 10% BSA in PBS at 50° C. for 30 mins. A final concentration of 100 uM FFA mixture was made in the final cell culture medium. Cells were incubated in fatty medium for 4 days to induce fatty liver. Cells were then treated with A27 at various concentrations for 3 days in the presence of the fatty medium. To determine the degree of steatosis, cells were stained with 1 mg/ml Nile Red solution (Sigma Aldrich) in cell culture medium for 15 mins at 37° C. and florescence signal was measured (see FIG. 1).

[10] = system: SARS-CoV-2; assay: microbe, parasite or virus in culture; type: cell-based; details: Severe acute respiratory syndrome coronavirus 2, read-out: EC50, SARS-CoV-2 genome replication
[11] = system: SARS-CoV-2; assay: Combination of A27 with other antivirals against SARS-CoV-2; type: cell-based
Source text: Thus, A27 can be combined with nirmatrelvir or paxlovid.

Chain of apolipoprotein B (apoB) (P04114 28-4563, species assumed): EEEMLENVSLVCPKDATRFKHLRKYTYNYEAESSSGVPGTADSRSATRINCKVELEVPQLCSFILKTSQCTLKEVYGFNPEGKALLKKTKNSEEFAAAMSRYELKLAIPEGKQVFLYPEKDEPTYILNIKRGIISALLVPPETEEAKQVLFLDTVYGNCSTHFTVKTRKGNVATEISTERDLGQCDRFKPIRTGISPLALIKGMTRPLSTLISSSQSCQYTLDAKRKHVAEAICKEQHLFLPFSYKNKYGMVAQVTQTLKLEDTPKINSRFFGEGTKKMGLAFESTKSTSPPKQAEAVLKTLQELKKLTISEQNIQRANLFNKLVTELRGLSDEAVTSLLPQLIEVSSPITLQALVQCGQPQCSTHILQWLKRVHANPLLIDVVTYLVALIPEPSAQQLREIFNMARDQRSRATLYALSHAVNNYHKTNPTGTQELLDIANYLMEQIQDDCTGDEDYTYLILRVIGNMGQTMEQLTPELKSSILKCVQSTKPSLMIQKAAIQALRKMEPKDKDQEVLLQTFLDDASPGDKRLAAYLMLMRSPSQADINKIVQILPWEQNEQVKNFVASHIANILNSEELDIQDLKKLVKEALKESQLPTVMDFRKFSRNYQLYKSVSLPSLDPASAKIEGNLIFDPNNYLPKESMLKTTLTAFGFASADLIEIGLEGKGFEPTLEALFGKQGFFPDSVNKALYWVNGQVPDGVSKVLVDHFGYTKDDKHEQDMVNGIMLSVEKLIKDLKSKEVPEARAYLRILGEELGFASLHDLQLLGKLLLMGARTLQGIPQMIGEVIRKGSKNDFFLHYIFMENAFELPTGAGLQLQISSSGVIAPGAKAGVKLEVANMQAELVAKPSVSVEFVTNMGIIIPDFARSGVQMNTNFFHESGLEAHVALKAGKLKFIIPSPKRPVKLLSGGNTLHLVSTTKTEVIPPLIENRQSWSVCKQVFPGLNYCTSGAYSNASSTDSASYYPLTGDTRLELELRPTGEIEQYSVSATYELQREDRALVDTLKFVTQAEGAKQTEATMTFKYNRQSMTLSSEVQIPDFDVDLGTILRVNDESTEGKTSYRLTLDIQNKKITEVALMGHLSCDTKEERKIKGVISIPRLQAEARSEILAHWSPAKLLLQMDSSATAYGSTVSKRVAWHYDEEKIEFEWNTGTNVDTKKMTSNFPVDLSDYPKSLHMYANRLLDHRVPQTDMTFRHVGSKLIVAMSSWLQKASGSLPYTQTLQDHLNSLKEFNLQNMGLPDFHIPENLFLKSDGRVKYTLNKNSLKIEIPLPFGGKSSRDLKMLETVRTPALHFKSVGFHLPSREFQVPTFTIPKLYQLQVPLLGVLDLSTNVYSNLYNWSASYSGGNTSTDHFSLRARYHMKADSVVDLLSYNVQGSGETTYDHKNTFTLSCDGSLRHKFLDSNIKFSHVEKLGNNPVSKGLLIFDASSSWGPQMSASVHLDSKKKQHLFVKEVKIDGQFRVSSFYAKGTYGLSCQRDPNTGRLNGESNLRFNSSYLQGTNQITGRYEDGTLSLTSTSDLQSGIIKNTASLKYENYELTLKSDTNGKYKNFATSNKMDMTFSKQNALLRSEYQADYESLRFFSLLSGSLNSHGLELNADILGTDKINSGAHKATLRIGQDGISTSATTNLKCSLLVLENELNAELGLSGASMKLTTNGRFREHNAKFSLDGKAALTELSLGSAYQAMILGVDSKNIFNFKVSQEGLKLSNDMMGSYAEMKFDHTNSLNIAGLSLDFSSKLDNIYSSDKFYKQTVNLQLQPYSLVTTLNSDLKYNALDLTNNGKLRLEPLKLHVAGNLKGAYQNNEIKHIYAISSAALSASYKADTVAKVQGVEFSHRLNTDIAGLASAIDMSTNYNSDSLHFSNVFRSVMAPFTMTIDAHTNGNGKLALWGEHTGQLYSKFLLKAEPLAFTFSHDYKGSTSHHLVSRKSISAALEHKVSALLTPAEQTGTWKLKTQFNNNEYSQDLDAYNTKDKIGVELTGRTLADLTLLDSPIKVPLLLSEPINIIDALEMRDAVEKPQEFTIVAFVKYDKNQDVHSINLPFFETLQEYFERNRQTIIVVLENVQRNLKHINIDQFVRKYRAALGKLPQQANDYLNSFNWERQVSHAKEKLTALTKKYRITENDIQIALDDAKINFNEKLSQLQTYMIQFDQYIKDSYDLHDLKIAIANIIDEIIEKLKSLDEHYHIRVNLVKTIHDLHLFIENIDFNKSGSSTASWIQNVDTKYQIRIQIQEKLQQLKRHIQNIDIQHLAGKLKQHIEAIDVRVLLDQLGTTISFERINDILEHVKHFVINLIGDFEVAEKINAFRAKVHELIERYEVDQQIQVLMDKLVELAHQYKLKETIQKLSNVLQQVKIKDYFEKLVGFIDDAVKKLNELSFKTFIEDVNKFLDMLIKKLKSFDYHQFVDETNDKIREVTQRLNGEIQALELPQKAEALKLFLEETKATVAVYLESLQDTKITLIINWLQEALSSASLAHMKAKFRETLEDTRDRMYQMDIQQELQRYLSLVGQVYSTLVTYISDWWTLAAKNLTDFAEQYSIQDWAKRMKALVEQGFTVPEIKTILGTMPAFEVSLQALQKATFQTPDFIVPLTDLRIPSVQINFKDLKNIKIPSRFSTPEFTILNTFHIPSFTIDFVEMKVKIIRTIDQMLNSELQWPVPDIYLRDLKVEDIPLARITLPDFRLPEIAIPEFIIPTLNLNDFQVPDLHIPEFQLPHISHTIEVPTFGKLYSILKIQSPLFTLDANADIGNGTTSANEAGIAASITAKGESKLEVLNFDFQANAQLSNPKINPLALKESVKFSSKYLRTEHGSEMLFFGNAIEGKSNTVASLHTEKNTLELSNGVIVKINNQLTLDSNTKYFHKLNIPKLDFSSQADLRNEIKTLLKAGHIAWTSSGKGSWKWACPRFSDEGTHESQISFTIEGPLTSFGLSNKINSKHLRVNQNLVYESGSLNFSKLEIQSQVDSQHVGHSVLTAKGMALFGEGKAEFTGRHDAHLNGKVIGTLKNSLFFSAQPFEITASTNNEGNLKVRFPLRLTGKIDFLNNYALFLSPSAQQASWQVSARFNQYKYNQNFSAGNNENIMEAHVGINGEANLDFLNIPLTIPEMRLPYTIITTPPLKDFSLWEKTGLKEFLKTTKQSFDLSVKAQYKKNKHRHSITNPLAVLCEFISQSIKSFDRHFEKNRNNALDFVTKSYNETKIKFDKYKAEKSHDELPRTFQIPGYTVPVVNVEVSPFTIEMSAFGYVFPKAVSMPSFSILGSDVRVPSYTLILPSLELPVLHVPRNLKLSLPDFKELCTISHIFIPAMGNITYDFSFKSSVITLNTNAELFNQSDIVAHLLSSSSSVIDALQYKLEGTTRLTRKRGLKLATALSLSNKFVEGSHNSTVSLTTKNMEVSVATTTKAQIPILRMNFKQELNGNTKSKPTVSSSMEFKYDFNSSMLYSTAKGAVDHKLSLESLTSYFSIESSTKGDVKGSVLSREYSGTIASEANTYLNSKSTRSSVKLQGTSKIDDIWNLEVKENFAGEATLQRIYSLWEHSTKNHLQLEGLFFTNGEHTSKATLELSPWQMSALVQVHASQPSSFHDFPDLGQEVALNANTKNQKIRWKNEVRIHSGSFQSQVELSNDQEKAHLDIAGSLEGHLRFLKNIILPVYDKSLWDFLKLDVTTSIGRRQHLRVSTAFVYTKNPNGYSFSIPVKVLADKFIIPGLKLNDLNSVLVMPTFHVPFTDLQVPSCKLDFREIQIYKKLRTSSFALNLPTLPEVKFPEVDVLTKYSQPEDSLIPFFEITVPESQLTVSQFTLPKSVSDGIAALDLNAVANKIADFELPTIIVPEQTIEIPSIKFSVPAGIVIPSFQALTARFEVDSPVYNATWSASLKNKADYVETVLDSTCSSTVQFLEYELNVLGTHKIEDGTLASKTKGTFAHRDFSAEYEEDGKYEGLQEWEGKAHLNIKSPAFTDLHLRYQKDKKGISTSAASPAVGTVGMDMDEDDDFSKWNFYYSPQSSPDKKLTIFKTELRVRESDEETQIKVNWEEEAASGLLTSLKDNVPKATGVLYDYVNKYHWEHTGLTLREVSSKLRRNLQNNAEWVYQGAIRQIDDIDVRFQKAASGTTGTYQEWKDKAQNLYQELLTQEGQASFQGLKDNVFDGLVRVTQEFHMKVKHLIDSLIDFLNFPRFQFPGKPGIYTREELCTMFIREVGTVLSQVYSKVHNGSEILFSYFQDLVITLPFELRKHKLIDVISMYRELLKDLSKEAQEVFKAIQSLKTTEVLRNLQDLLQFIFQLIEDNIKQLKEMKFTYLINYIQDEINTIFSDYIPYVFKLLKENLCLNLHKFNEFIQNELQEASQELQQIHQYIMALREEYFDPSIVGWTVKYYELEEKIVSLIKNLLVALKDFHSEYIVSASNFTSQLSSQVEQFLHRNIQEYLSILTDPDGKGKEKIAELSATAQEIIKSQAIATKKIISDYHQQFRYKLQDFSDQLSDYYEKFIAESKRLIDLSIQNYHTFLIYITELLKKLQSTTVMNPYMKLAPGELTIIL

## Cn1nc(C(=O)NC2CCN(CCN3CCCC3)CC2)c2ccc(N3CCCCCC3)nc21 [Compound A27]
[1]
  binding to apolipoprotein B (apoB): can bind
[2]
  toxicity: without any evidence of toxicity
[3]
  EC50: 7900 nM
[4]
  plaque size compared to oseltamivir treated wells: smaller-sized plaques
[5]; 4 weeks
  tolerability in mice: tolerated A27 well
[5]; high fat diet for 4 weeks, versus vehicle
  hepatic steatosis measured by liver ultrasound: reduces hepatic steatosis
[6]
  EC50: ~1000 nM
[7]
  EC50: 1100 nM
[8]
  toxicity: without any evidence of toxicity
[9]; HepG2 cells, A27 at various concentrations for 3 days in fatty medium
  lipid accumulation (Nile Red fluorescence): dose-dependent decrease in lipid accumulation
[9]; Homo sapiens, HepG2, 72 h, read-out: half effective concentration (EC50), inhibition of formation of steatosis
  EC50: ~500 nM
[10]
  EC50: 803 nM
[11]; with a polymerase inhibitor nucleoside analog (e.g. EIDD2801)
  combination effect with polymerase inhibitor nucleoside analog: additive
[11]; with protease inhibitors against SARS-CoV-2 (e.g. PF-07321332)
  combination effect with protease inhibitors: synergistic
